According to patent publication US10899758B2, “Inhibitors of the menin-MLL interaction” (Vitae Pharmaceuticals, LLC, priority 2016, dated 2021):

What was measured:
[1] = tested on: human acute monocytic leukemia cell line MV-4-11; experiment: Assay 2 (Cell Proliferation Assay), ATP quantitation (CellTiter-Glo); format: cell-based; conditions: Homo sapiens, MV4-11, 72 h, MV-4-11 cells, read-out: Assay 2 (EC50, inhibition of cell proliferation)
Method: Potencies of inhibitor compounds against cell proliferation was assessed against the human acute monocytic leukemia cell line MV-4-11 (ATCC® CRL-9591™) based on ATP quantitation. MV-4-11 cells or toxicity control HL-60 cells (ATCC® CCL-240™) were incubated in 96-well tissue culture plates (1.67×10^4 cells in 200 μL culture media containing 10% FBS per well) with or without test compound for 72 h at 37° C., 5% CO2. After incubation, each well was mixed by pipetting and 95 μL from each well was transferred to a well in 96-well black OptiPlate® plates (PerkinElmer). An equal volume of CellTiter-Glo® Luminescent Cell Viability Assay reagent (Promega) was added to each well, followed by mixing for 5 min on an orbital plate shaker. Luminescence was measured on a Wallac EnVision 2104 Multilabel Reader (PerkinElmer) to quantitate ATP. Percent inhibition of cell proliferation by test compounds was calculated based on uninhibited cell growth (DMSO) versus cells treated with a potent menin inhibitor at a concentration yielding at least 100×LD50.

[2] = target: T1, menin/MLL binding (biotinylated wild-type or mutated menin and MLL-AF9 fusion protein) (Homo sapiens, UniProt O00255); experiment: Assay 1 (Binding Assay): AlphaLISA menin/MLL binding; conditions: 5 nM biotinylated menin, MLL-AF9-FLAG lysate
T1 construct: biotinylated (1) wild-type menin or (2) mutated menin (described in Nature (2012) Vol. 482, pp. 542-548); fused on or other part: Biotin attached chemically (Sulfo-NHS-Biotin); no fused second protein is printed for menin
T1 sequence (O00255 1-459 limits assumed): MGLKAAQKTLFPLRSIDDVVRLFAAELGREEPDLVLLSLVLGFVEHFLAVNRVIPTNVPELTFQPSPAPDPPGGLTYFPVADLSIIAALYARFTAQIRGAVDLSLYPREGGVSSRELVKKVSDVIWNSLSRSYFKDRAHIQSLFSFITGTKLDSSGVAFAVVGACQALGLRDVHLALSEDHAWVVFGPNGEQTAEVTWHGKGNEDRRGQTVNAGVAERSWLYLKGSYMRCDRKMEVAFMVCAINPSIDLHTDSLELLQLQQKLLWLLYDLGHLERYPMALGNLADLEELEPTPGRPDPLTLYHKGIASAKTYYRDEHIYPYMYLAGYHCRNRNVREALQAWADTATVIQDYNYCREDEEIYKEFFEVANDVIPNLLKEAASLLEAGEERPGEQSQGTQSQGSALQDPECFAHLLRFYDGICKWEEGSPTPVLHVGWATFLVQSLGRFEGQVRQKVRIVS
How it was run: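 Biotinylated E. coli-expressed menin (wild-type or mutant), 5 nM, incubated 30 min RT with compound and HEK293 lysate of MLL1-1,396–AF9-FLAG in pH 7.4 Tris buffer, 5% DMSO, 1 mM DTT. Anti-FLAG acceptor and streptavidin donor beads added, 60 min RT, AlphaLISA signal read. IC50 from four-parameter fit of % inhibition.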

Structure (SMILES)	EC50 [1] [nM]	IC50 [2] [nM]
CC(C)N(C(=O)c1cc(F)ccc1-n1cc(C2CCN(Cc3ccc4c(c3)[nH]c(=O)n4CCO)C2)c2ccncc21)C(C)C (stereo not drawn) [Example 126, 5-fluoro-2-(3-(1-((1-(2-hydroxyethyl)-2-oxo-2,3-dihydro-1H-benzo[d]imidazol-5-yl)methyl)pyrrolidin-3-yl)-1H-pyrrolo[2,3-c]pyridin-1-yl)-N,N-diisopropylbenzamide]	< 100	< 100
CC(C)N(C)C(=O)c1cc(F)ccc1-n1cc(C2CCN(C[C@H]3CC[C@H](NS(C)(=O)=O)CC3)CC2)c2ccncc21 [Example 21, 5-fluoro-N-isopropyl-N-methyl-2-(3-(1-((trans-4-(methylsulfonamido)cyclohexyl)methyl)piperidin-4-yl)-1H-pyrrolo[2,3-c]pyridin-1-yl)benzamide]	100 to 1000	< 100
CC(C)N(C(=O)c1cc(F)ccc1-n1cc(C2CCCN(Cc3ccc4c(c3)[nH]c(=O)n4CCO)C2)c2ccncc21)C(C)C (stereo not drawn) [Example 84, 5-fluoro-2-(3-(1-((1-(2-hydroxyethyl)-2-oxo-2,3-dihydro-1H-benzo[d]imidazol-5-yl)methyl)piperidin-3-yl)-1H-pyrrolo[2,3-c]pyridin-1-yl)-N,N-diisopropylbenzamide]	< 100	< 100
CC(C)N(C)C(=O)c1cc(F)ccc1-n1cc(C2CCCN(C[C@H]3CC[C@H](NS(C)(=O)=O)CC3)CC2)c2ccncc21 (relative stereo) [Example 41, 5-fluoro-N-isopropyl-N-methyl-2-(3-(1-((trans-4-(methylsulfonamido)cyclohexyl)methyl)azepan-4-yl)-1H-pyrrolo[2,3-c]pyridin-1-yl)benzamide]	< 100	< 100
CC(C)N(C)C(=O)c1cc(F)ccc1-n1cc(C2CCN(Cc3ccccc3Cl)CC2)c2ccncc21 [Example 15, 2-(3-(1-(2-chlorobenzyl)piperidin-4-yl)-1H-pyrrolo[2,3-c]pyridin-1-yl)-5-fluoro-N-isopropyl-N-methylbenzamide]	100 to 1000	< 100
CC(C)N(C)C(=O)c1cc(F)ccc1-n1cc(C2CCN(Cc3ccc(C#N)cc3)CC2)c2ccncc21 [Example 12, 2-(3-(1-(4-cyanobenzyl)piperidin-4-yl)-1H-pyrrolo[2,3-c]pyridin-1-yl)-5-fluoro-N-isopropyl-N-methylbenzamide]	100 to 1000	< 100
CC(C)N(C)C(=O)c1cc(F)ccc1-n1cc(C2CCN(Cc3ccc4[nH]c(=O)[nH]c4c3)CC2)c2ccncc21 [Example 5, 5-fluoro-N-isopropyl-N-methyl-2-(3-(1-((2-oxo-2,3-dihydro-1H-benzo[d]imidazol-5-yl)methyl)piperidin-4-yl)-1H-pyrrolo[2,3-c]pyridin-1-yl)benzamide]	100 to 1000	< 100
CC(C)N(C)C(=O)c1cc(F)ccc1-n1cc(C2CCC(N3CCC(O)C3)CC2)c2ccncc21 (single isomer, unassigned) [Example 95A, 5-fluoro-2-(3-(4-(3-hydroxypyrrolidin-1-yl)cyclohexyl)-1H-pyrrolo[2,3-c]pyridin-1-yl)-N-isopropyl-N-methylbenzamide]		< 100
CC(C)N(C)C(=O)c1cc(F)ccc1-n1cc(C2CCC(N3CCNC(=O)C3)CC2)c2ccncc21 (stereo not drawn) [Example 116, 5-fluoro-N-isopropyl-N-methyl-2-(3-(4-(3-oxopiperazin-1-yl)cyclohexyl)-1H-pyrrolo[2,3-c]pyridin-1-yl)benzamide]		100 to 1000
CC(C)N(C)C(=O)c1cc(F)ccc1-n1cc(C2CCC3(CC2)CNC3)c2ccncc21 [Example 51, 2-(3-(2-azaspiro[3.5]nonan-7-yl)-1H-pyrrolo[2,3-c]pyridin-1-yl)-5-fluoro-N-isopropyl-N-methylbenzamide]		100 to 1000
CC(C)N(C)C(=O)c1cc(F)ccc1-n1cc(C2C[C@@H](C)N[C@@H](C)C2)c2ccncc21 (stereo partly drawn) [Int. 13, 2-(3-((2S,6R)-2,6-dimethylpiperidin-4-yl)-1H-pyrrolo[2,3-c]pyridin-1-yl)-5-fluoro-N-isopropyl-N-methylbenzamide]		100 to 1000
